Reference: publication PMC10386514, “Cyclodextrin’s Effect on Permeability and Partition of Nortriptyline Hydrochloride” (Pharmaceuticals, 2023)
Counter-ions that a name gives are not always drawn. Like-named read-outs stand apart in the source and are kept apart here.

Experiments:
[1] = set-up: method as in doi:10.1016/j.molliq.2022.120801; details: RC vs PP; cited from earlier work
[2] = for distribution coefficient lower than that of AMT•HCl: AMT•HCl values from ref 14; for distribution coefficient higher at buffer pH of 6.8 than at pH of 4.0: no CD; for Dapp hex/buf / Dapp oct/buf / logDapp hex/buf / logDapp oct/buf: 37 °C
Description: The apparent distribution coefficients of NTT•HCl ( DappOrg/buf ) in the 1-octanol/buffer ( Dappoct/buf ) and n-hexane/buffer ( Dapphex/buf ) systems were measured at 37 °C via the standard shake-flask method using mutually saturated organic and aqueous solvents, as reported in our earlier studies. The experimental procedure was partially modified in the case of cyclodextrins (both HP-β-CD and SBE-β-CD) in the aqueous phase of the distribution system. Following the respective literature, in the present study, we prepared 1-octanol or n-hexane saturated with a buffer and a buffer saturated with 1-octanol and n-hexane. Three cyclodextrin concentrations (0.0115 M, 0.025 M and 0.035 M) in the aqueous phase were introduced. For the 1-octanol/buffer distribution, the examined solution of NTT•HCl was prepared in 1-octanol saturated with a buffer (C ~ 2 × 10^−3 M), whereas for the n-hexane/buffer system, it was prepared in a buffer saturated with n-hexane (C ~ 2 × 10^−3 M). Taking into account the obtained values of NTT•HCl solubility in the organic solvents and aqueous buffers, equal volumes of the 1-octanolic and buffer phases were prepared, whereas the n-hexane/buffer ratio was 12:2. Two pH values of the aqueous phases were examined: a pH of 4.0 and a pH of 6.8, simulating different segments of the gastro-intestinal tract. The respective volumes of the phases were placed into glass vials and equilibrated in an air thermostat for 3 days at 37 °C. Then, the phases were separated after at least 6 h of storage. The concentrations in both phases were measured using a UV–Vis spectrophotometer (Cary-50, USA Cary-50 Varian, Palo Alto, CA, USA, Software Version 3.00 (339)) with the help of the calibration curves. Each distribution test was carried out at least three times.
The distribution coefficients ( DappOrg/buf ) were determined, taking into account the compound concentrations in the organic ( C2Org ) and buffer ( C2buf ) phases and the volumes of the buffer ( Vbuf ) and organic ( VOrg ) phases:(1) DappOrg/buf=C2Org⋅V^buf/C2buf⋅V^Org

[3] = cited from earlier work
[4] = RC vs PP, no CD
Description: The permeability coefficients of NTT•HCl were determined in the absence and in the presence of cyclodextrins (HP-β-CD and SBE-β-CD) in the donor solution. A model artificial regenerated cellulose membrane MWCO 12–14 kDa (Standard Grade RC Dialysis Membrane, Flat Width 45 mm) (RC) or a biomimetic PermeaPad barrier (PHABIOC, Germany, www.permeapad.com (accessed on 1 February 2023)) (PP) were placed between the donor and receptor compartments of a vertical type Franz diffusion cell (PermeGear, Inc., Hellertown, PA, USA) with 7 mL/1 mL volumes for the donor and acceptor solutions. The cyclodextrin concentrations were 0.0115 M, 0.025 M and 0.035 M when the RC membrane was used and only 0.035 M in case of the PP barrier. Two different pH values (pH of 4.0 and pH of 6.8) were applied in the donor solution, whereas the receptor chamber was filled with a buffer with a pH of 7.4, modeling the compound’s diffusion to the blood plasma in all the experiments. […] Samples with a volume of 0.5 mL for the receptor solution were withdrawn every 30 min for 5 h and analyzed with a spectrophotometer (Spectramax 190; Molecular Devices Corporation, San Jose, CA, USA) in 96-well UV black plates (Costar, Washington, DC, USA) at a wavelength of 239 nm.
The permeability coefficient was calculated using the NTT•HCl concentration in the donor solution (C0), as follows:(7) Papp=J/C0

[5] = human epidermis, buffer pH of 7.4; cited from earlier work
[6] = Description: To this end, the phase distribution approach fully described in [17] was applied. […] It is evident that, in the presence of cyclodextrins, the distribution coefficient of the compound can be described by the following equation:(3) DappOrg/(buf+CD)=C2Org(drug)/C2buf(drug)+C2buf(drug•CD) where DappOrg/(buf+CD) is the distribution coefficient of the drug in the presence of CD, C2Org and C2buf are the drug concentrations in the organic and aqueous phases, respectively, and C2buf(drug•CD) is the concentration of the drug/cyclodextrin complex in the aqueous phase of the distribution system. As follows from Equation (3), the association constant of the complex can be derived from DappOrg/buf and DappOrg/(buf+CD) at specific CD concentrations using Equation (4). (4) DappOrg/(buf+CD)/DappOrg/buf=1+KC⋅CCD
It can be performed by plotting the following dependence:(5) log(DappOrg/buf−DappOrg/(buf+CD)/DappOrg/buf)=log(KC)+α⋅log(CCD)

[7] = epidermis (ref 18) vs PermeaPad, no CD
[8] = 37 °C
Description: The ∆logD parameter of Seiler was calculated for a single CD concentration in the aqueous phase, equal to 0.0115 M for both HP-β-CD and SBE-β-CD, as follows:(2) ΔlogD=logDappoct/buf−logDapphex/buf

CN(C)CCC=C1c2ccccc2CCc2ccccc21.Cl [AMT•HCl, amitryptiline hydrochloride]
difference between the coefficients of permeability through the PP and RC [1]: 4.0 fold

CNCCC=C1c2ccccc2CCc2ccccc21 [NTT•HCl, Nortriptyline hydrochloride]
distribution coefficient lower than that of AMT•HCl ([2]; 1-octanol/buffer pH of 4.0): 7 fold
distribution coefficient lower than that of AMT•HCl ([2]; 1-octanol/buffer pH of 6.8): 13 fold
distribution coefficient higher at buffer pH of 6.8 than at pH of 4.0 ([2]; 1-octanol/buffer): 1.33 fold
distribution coefficient higher at buffer pH of 6.8 than at pH of 4.0 ([2]; n-hexane/buffer): 1.61 fold
Dapp hex/buf ([2]; pH 4.0, 0.0115 M HP-β-CD): (4.6 ± 0.1) × 10^−3
Dapp oct/buf ([2]; pH 4.0, 0.0115 M HP-β-CD): 0.299 ± 0.008
logDapp hex/buf ([2]; pH 4.0, 0.0115 M HP-β-CD): −2.34
logDapp oct/buf ([2]; pH 4.0, 0.0115 M HP-β-CD): −0.52
Dapp hex/buf ([2]; pH 4.0, 0.0115 M SBE-β-CD): (3.3 ± 0.1) × 10^−3
Dapp oct/buf ([2]; pH 4.0, 0.0115 M SBE-β-CD): 0.204 ± 0.005
logDapp hex/buf ([2]; pH 4.0, 0.0115 M SBE-β-CD): −2.48
logDapp oct/buf ([2]; pH 4.0, 0.0115 M SBE-β-CD): −0.69
Dapp oct/buf ([2]; pH 4.0, 0.025 M HP-β-CD): 0.154 ± 0.003
logDapp oct/buf ([2]; pH 4.0, 0.025 M HP-β-CD): −0.81
Dapp oct/buf ([2]; pH 4.0, 0.025 M SBE-β-CD): 0.086 ± 0.001
logDapp oct/buf ([2]; pH 4.0, 0.025 M SBE-β-CD): −1.07
Dapp oct/buf ([2]; pH 4.0, 0.035 M HP-β-CD): 0.101 ± 0.001
logDapp oct/buf ([2]; pH 4.0, 0.035 M HP-β-CD): −1.0
Dapp oct/buf ([2]; pH 4.0, 0.035 M SBE-β-CD): 0.013 ± 0.000
logDapp oct/buf ([2]; pH 4.0, 0.035 M SBE-β-CD): −1.89
Dapp hex/buf ([2]; pH 4.0, no CD): (5.6 ± 0.2) × 10^−3
Dapp oct/buf ([2]; pH 4.0, no CD): 4.159 ± 0.080
logDapp hex/buf ([2]; pH 4.0, no CD): −2.23
logDapp oct/buf ([2]; pH 4.0, no CD): 0.62
Dapp hex/buf ([2]; pH 6.8, 0.0115 M HP-β-CD): (8.7 ± 0.1) × 10^−3
Dapp oct/buf ([2]; pH 6.8, 0.0115 M HP-β-CD): 2.613 ± 0.022
logDapp hex/buf ([2]; pH 6.8, 0.0115 M HP-β-CD): −2.06
logDapp oct/buf ([2]; pH 6.8, 0.0115 M HP-β-CD): 0.42
Dapp hex/buf ([2]; pH 6.8, 0.0115 M SBE-β-CD): (8.6 ± 0.3) × 10^−3
Dapp oct/buf ([2]; pH 6.8, 0.0115 M SBE-β-CD): 1.443 ± 0.040
logDapp hex/buf ([2]; pH 6.8, 0.0115 M SBE-β-CD): −2.07
logDapp oct/buf ([2]; pH 6.8, 0.0115 M SBE-β-CD): 0.16
Dapp oct/buf ([2]; pH 6.8, 0.025 M HP-β-CD): 1.993 ± 0.030
logDapp oct/buf ([2]; pH 6.8, 0.025 M HP-β-CD): 0.30
Dapp oct/buf ([2]; pH 6.8, 0.025 M SBE-β-CD): 0.364 ± 0.011
logDapp oct/buf ([2]; pH 6.8, 0.025 M SBE-β-CD): −0.44
Dapp oct/buf ([2]; pH 6.8, 0.035 M HP-β-CD): 1.395 ± 0.025
logDapp oct/buf ([2]; pH 6.8, 0.035 M HP-β-CD): 0.15
Dapp oct/buf ([2]; pH 6.8, 0.035 M SBE-β-CD): 0.227 ± 0.006
logDapp oct/buf ([2]; pH 6.8, 0.035 M SBE-β-CD): −0.64
Dapp hex/buf ([2]; pH 6.8, no CD): (9.5 ± 0.2) × 10^−3
Dapp oct/buf ([2]; pH 6.8, no CD): 5.537 ± 0.111
logDapp hex/buf ([2]; pH 6.8, no CD): −2.02
logDapp oct/buf ([2]; pH 6.8, no CD): 0.74
pKa [3]: 9.23
difference between the coefficients of permeability through the PP and RC [4]: 1.6 fold
coefficient of permeability through epidermis [5]: 0.36 × 10^−6
KC, association constant of the NTT•HCl/cyclodextrin complex ([6]; HP-β-CD, aqueous phase pH of 4.0, 37 °C): 1.13 ± 0.02 M⁻¹
KC, association constant of the NTT•HCl/cyclodextrin complex ([6]; HP-β-CD, aqueous phase pH of 6.8, 37 °C): 2.01 ± 0.05 M⁻¹
KC, association constant of the NTT•HCl/cyclodextrin complex ([6]; SBE-β-CD, aqueous phase pH of 4.0, 37 °C): 1.14 ± 0.02 M⁻¹
KC, association constant of the NTT•HCl/cyclodextrin complex ([6]; SBE-β-CD, aqueous phase pH of 6.8, 37 °C): 2.24 ± 0.03 M⁻¹
greater resistance of the epidermis than that of the PermeaPad barrier [7]: 67 fold
∆logD ([8]; pH 4.0, 0.0115 M HP-β-CD): 1.82
∆logD ([8]; pH 4.0, 0.0115 M SBE-β-CD): 1.79
∆logD ([8]; pH 4.0, no CD): 2.85
∆logD ([8]; pH 6.8, 0.0115 M HP-β-CD): 2.48
∆logD ([8]; pH 6.8, 0.0115 M SBE-β-CD): 2.23
∆logD ([8]; pH 6.8, no CD): 2.76
